This note sets out measurements from patent publication US20250352679A1, “IN-SITU STE[…] VAPOR PHASE DEPOSITION” (Applied Materials, Inc., priority 2024, published 2025).

Molecules are shown by their SMILES.

This assay relates to bioburden of powdered lactose. Description: Bioburden testing (US Pharmacopeia 61, colony count) of lactose powder after ozone sterilization in the reactor chamber. Particulars: 50 g lactose powder, 5 hrs, 35° C., 10 rpm, 0 ppm control 1800 CFU/ml. Type of assay: cell-based. How it is done:
(§1) Briefly, 50 grams of lactose powder was loaded into the reactor chamber. The chamber was evacuated to reach a pressure of 0.008 Torr and then 0.01 Torr. Then the chamber was filled with ozone at 25 sccm to 2 ppm, 10 ppm or 20 ppm. The ozone was kept in the chamber for 5 hrs. The reaction was held at 35° C. and the reactor chamber was rotated at 10 rpm. At the end of the 5 hour incubation time, the chamber was evacuated to reach a pressure of 0.01 Torr and purged with nitrogen. The lactose was then tested using US Pharmacopeia 61 testing. Briefly, the samples were incubated in petri-dishes and counted for colony forming units (cfu).
as §1, with “ppm. Water vapor was also added at an ozone/water ratio of 1:10.” for “ppm.”, “test” for “tested”, “testing.” for “testing. Briefly, the samples were incubated in petri-dishes and counted for colony forming units (cfu).”

On to `O=[O+][O-]` [Dry ozone, ozone], for which the Bioburden (ozone concentration 2 ppm) came to 500 CFU/ml, the Bioburden (ozone concentration 10 ppm) is on record as 50 CFU/ml and the Bioburden (ozone concentration 20 ppm) was less than 1 CFU/ml.
